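Each compound was tested at five concentrations against cells in 96-well plates for 48 hours. Definition used: TGI = concentration required for complete inhibition of growth.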
Key:
Assay in all cases: NCI anticancer screen, dose series, 48 h
SK-MEL-28 melanoma = system: SK-MEL-28 melanoma
EKVX NSCLC = system: EKVX NSCLC
SF-268 CNS = system: SF-268 CNS
CCRF-CEM leukemia = system: CCRF-CEM leukemia
NCI/ADR-RES ovarian = system: NCI/ADR-RES ovarian
K-562 leukemia = system: K-562 leukemia
ACHN renal = system: ACHN renal
MDA-MB-231 breast = system: MDA-MB-231 breast
SW-620 colon = system: SW-620 colon
SK-MEL-2 melanoma = system: SK-MEL-2 melanoma
RXF 393 renal = system: RXF 393 renal
RPMI-8226 leukemia = system: RPMI-8226 leukemia
UACC-257 melanoma = system: UACC-257 melanoma
HT29 colon = system: HT29 colon
DU-145 prostate = system: DU-145 prostate
HS 578T breast = system: HS 578T breast
NCI-H460 lung = system: NCI-H460 lung
A498 renal = system: A498 renal
OVCAR-4 ovarian = system: OVCAR-4 ovarian
OVCAR-8 ovarian = system: OVCAR-8 ovarian
SK-OV-3 ovarian = system: SK-OV-3 ovarian
MOLT-4 leukemia = system: MOLT-4 leukemia
HCT-116 colon = system: HCT-116 colon
SNB-75 CNS = system: SNB-75 CNS
BT-549 breast = system: BT-549 breast
SR leukemia = system: SR leukemia
UACC-62 melanoma = system: UACC-62 melanoma
A549 NSCLC = system: A549 NSCLC
PC-3 prostate = system: PC-3 prostate
MALME-3M melanoma = system: MALME-3M melanoma
LOX IMVI melanoma = system: LOX IMVI melanoma
HCC-2998 colon = system: HCC-2998 colon
COLO 205 colon = system: COLO 205 colon
SN12C renal = system: SN12C renal
MDA-N = system: MDA-N
HCT-15 colon = system: HCT-15 colon
SF-295 CNS = system: SF-295 CNS
TK-10 renal = system: TK-10 renal
NCI-H522 lung = system: NCI-H522 lung
SF-539 CNS = system: SF-539 CNS
OVCAR-5 ovarian = system: OVCAR-5 ovarian
CAKI-1 renal = system: CAKI-1 renal
NCI-H23 lung = system: NCI-H23 lung
HOP-62 NSCLC = system: HOP-62 NSCLC
SK-MEL-5 melanoma = system: SK-MEL-5 melanoma
M14 melanoma = system: M14 melanoma
IGROV1 ovarian = system: IGROV1 ovarian
MCF7 breast = system: MCF7 breast
HL-60(TB) leukemia = system: HL-60(TB) leukemia
MDA-MB-435 = system: MDA-MB-435
786-0 renal = system: 786-0 renal
UO-31 renal = system: UO-31 renal
KM12 colon = system: KM12 colon
OVCAR-3 ovarian = system: OVCAR-3 ovarian
U251 CNS = system: U251 CNS
SNB-19 CNS = system: SNB-19 CNS
HOP-92 NSCLC = system: HOP-92 NSCLC
NCI-H226 lung = system: NCI-H226 lung
T-47D breast = system: T-47D breast

Measured: TGI

N=C1N(S(=O)(=O)c2ccccc2)[C@@H](Cc2ccccc2)[C@H](c2ccccc2)C1(c1ccccc1)c1ccccc1
not listed: HOP-92 NSCLC | NCI-H226 lung | T-47D breast
> 100 µM: all other assays above

O=[N+]([O-])c1ccc2nc(-c3ccccn3)c(-c3ccccn3)nc2c1
not listed: K-562 leukemia | MDA-MB-231 breast | LOX IMVI melanoma
> 100 µM: all other assays above
